# Test results as given in patent publication US20260078122A1, “INDAZOLE COMPOUNDS AS PKMYT1 KINASE INHIBITORS” (Hoffmann-La Roche Inc., priority 2023, published 2026).
# Molecular target: T1, recombinant human Myt1 (full length PKMYT1) (Homo sapiens, UniProt Q99640)
# T1 sequence (Q99640 1-499): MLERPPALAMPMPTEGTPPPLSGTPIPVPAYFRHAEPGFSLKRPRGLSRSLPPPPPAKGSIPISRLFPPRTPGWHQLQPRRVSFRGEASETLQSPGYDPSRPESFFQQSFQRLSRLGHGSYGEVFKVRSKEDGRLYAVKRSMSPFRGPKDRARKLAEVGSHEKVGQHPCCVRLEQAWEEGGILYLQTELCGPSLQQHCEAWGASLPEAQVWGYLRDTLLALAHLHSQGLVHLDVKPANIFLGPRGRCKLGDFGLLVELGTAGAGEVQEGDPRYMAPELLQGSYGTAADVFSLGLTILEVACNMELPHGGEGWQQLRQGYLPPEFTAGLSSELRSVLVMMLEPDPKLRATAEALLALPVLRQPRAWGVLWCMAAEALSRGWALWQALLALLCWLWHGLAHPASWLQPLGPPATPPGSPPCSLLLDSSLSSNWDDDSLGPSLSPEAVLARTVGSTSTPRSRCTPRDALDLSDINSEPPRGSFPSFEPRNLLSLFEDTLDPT
# Assay: ADP-Glo assay (Myt1 kinase activity)
row,SMILES,IC50 [nM]
1,"CCc1cnc(C)c2[nH]c(=O)c(N)c(-c3ccc(F)c4[nH]ncc34)c12 [Example 178, 3-Amino-5-ethyl-4-(7-fluoro-1H-indazol-4-yl)-8-methyl-1H-1,7-naphthyridin-2-one]",18.1
2,"Cc1c(Cl)nc2c(-c3ccc(F)c4[nH]ncc34)c(N)c(=O)[nH]c2c1C [Example 49, 3-Amino-6-chloro-4-(7-fluoro-1H-indazol-4-yl)-7,8-dimethyl-1H-1,5-naphthyridin-2-one]",< 10
3,"Cc1c(C2CC2)nc2c(-c3ccc(F)c4[nH]ncc34)c(N)c(=O)[nH]c2c1Cl [Example 109, 3-Amino-8-chloro-6-cyclopropyl-4-(7-fluoro-1H-indazol-4-yl)-7-methyl-1H-1,5-naphthyridin-2-one]",< 10
4,"Cc1c(I)cnc2c(-c3ccc(F)c4[nH]ncc34)c(N)c(=O)[nH]c12 [Example 116, 3-Amino-4-(7-fluoro-1H-indazol-4-yl)-7-iodo-8-methyl-1H-1,5-naphthyridin-2-one]",< 10
5,"COc1c(C)nc(C)c2[nH]c(=O)c(N)c(-c3ccc(F)c4[nH]ncc34)c12 [Example 174, 3-Amino-4-(7-fluoro-1H-indazol-4-yl)-5-methoxy-6,8-dimethyl-1H-1,7-naphthyridin-2-one]",12.7
6,"Cc1ncc(OC(F)(F)F)c2c(-c3ccc(F)c4[nH]ncc34)c(N)c(=O)[nH]c12 [Example 192, 3-Amino-4-(7-fluoro-1H-indazol-4-yl)-8-methyl-5-(trifluoromethoxy)-1H-1,7-naphthyridin-2-one]",< 10
7,"Cc1c(C2CCCC2)cnc2c(-c3ccc(F)c4[nH]ncc34)c(N)c(=O)[nH]c12 [Example 126, 3-Amino-7-cyclopentyl-4-(7-fluoro-1H-indazol-4-yl)-8-methyl-1H-1,5-naphthyridin-2-one]",< 10
8,"COc1ncc(Cl)c2[nH]c(=O)c(N)c(-c3ccc(F)c4[nH]ncc34)c12 [Example 171, 3-Amino-8-chloro-4-(7-fluoro-1H-indazol-4-yl)-5-methoxy-1H-1,6-naphthyridin-2-one]",15.8
9,"Nc1c(-c2cccc3[nH]ncc23)c2ncc(-c3nccs3)cc2[nH]c1=O [Example 35, 3-Amino-4-(1H-indazol-4-yl)-7-thiazol-2-yl-1H-1,5-naphthyridin-2-one]",25.6
10,"Cc1c(F)cnc2c(-c3ccc(F)c4[nH]ncc34)c(N)c(=O)[nH]c12 [Example 135, 3-Amino-7-fluoro-4-(7-fluoro-1H-indazol-4-yl)-8-methyl-1H-1,5-naphthyridin-2-one]",14
11,"CC(=O)c1nc2c(-c3ccc(F)c4[nH]ncc34)c(N)c(=O)[nH]c2c(Cl)c1C [Example 112, 6-Acetyl-3-amino-8-chloro-4-(7-fluoro-1H-indazol-4-yl)-7-methyl-1H-1,5-naphthyridin-2-one]",< 10
12,"Cc1c(C2CC2)nc(Cl)c2c(-c3ccc(F)c4[nH]ncc34)c(N)c(=O)[nH]c12 [Example 162, 3-Amino-5-chloro-7-cyclopropyl-4-(7-fluoro-1H-indazol-4-yl)-8-methyl-1H-1,6-naphthyridin-2-one]",< 10
13,"Cc1cc(C#CC(C)(C)O)nc2c(-c3ccc(F)c4[nH]ncc34)c(N)c(=O)[nH]c12 [Example 148, 3-Amino-4-(7-fluoro-1H-indazol-4-yl)-6-(3-hydroxy-3-methyl-but-1-ynyl)-8-methyl-1H-1,5-naphthyridin-2-one]",< 10
14,"Cc1ncc(F)c2c(-c3ccc(F)c4[nH]ncc34)c(N)c(=O)[nH]c12 [Example 179, 3-Amino-5-fluoro-4-(7-fluoro-1H-indazol-4-yl)-8-methyl-1H-1,7-naphthyridin-2-one]",12.5
15,"CSc1cnc2c(-c3ccc(F)c4[nH]ncc34)c(N)c(=O)[nH]c2c1C [Example 141, 3-Amino-4-(7-fluoro-1H-indazol-4-yl)-8-methyl-7-methylsulfanyl-1H-1,5-naphthyridin-2-one]",10.4
16,"Cc1ncc(OCC(F)F)c2c(-c3ccc(F)c4[nH]ncc34)c(N)c(=O)[nH]c12 [Example 186, 3-Amino-5-(2,2-difluoroethoxy)-4-(7-fluoro-1H-indazol-4-yl)-8-methyl-1H-1,7-naphthyridin-2-one]",15.8
17,"Cc1ncc(C)c2c(-c3ccc(F)c4[nH]ncc34)c(N)c(=O)[nH]c12 [Example 177, 3-Amino-4-(7-fluoro-1H-indazol-4-yl)-5,8-dimethyl-1H-1,7-naphthyridin-2-one]",13.9
18,"Cc1nc2c(-c3ccc(F)c4[nH]ncc34)c(N)c(=O)[nH]c2c(C)c1Cl [Example 56, 3-Amino-7-chloro-4-(7-fluoro-1H-indazol-4-yl)-6,8-dimethyl-1H-1,5-naphthyridin-2-one]",< 10
19,"Cc1cc2[nH]c(=O)c(N)c(-c3ccc(F)c4[nH]ncc34)c2nc1N1CC2CCC1CN2C (stereo not drawn) [Example 31, 3-Amino-4-(7-fluoro-1H-indazol-4-yl)-7-methyl-6-(5-methyl-2,5-diazabicyclo[2.2.2]octan-2-yl)-1H-1,5-naphthyridin-2-one]",21.3
20,"Nc1c(-c2ccc(F)c3[nH]ncc23)c2c(OCc3ccccc3)cnc(Cl)c2[nH]c1=O [Example 180, 3-Amino-5-benzyloxy-8-chloro-4-(7-fluoro-1H-indazol-4-yl)-1H-1,7-naphthyridin-2-one]",22.6
21,"Cc1c(OCC(F)(F)F)cnc2c(-c3ccc(F)c4[nH]ncc34)c(N)c(=O)[nH]c12 [Example 137, 3-Amino-4-(7-fluoro-1H-indazol-4-yl)-8-methyl-7-(2,2,2-trifluoroethoxy)-1H-1,5-naphthyridin-2-one]",14.1
22,"Cc1ncc(OCC2CC2)c2c(-c3ccc(F)c4[nH]ncc34)c(N)c(=O)[nH]c12 [Example 191, 3-Amino-5-(cyclopropylmethoxy)-4-(7-fluoro-1H-indazol-4-yl)-8-methyl-1H-1,7-naphthyridin-2-one]",15.7
23,"Nc1c(-c2ccc(F)c3[nH]ncc23)c2nc(C3CC3)c(Cl)cc2[nH]c1=O [Example 55, 3-Amino-7-chloro-6-cyclopropyl-4-(7-fluoro-1H-indazol-4-yl)-1H-1,5-naphthyridin-2-one]",12.4
24,"Cc1ncc(OCCC(F)F)c2c(-c3ccc(F)c4[nH]ncc34)c(N)c(=O)[nH]c12 [Example 188, 3-Amino-5-(3,3-difluoropropoxy)-4-(7-fluoro-1H-indazol-4-yl)-8-methyl-1H-1,7-naphthyridin-2-one]",15

# Other lines, results leading:
row,IC50 [nM],SMILES
1,47,"Cc1cc2[nH]c(=O)c(N)c(-c3ccc(F)c4[nH]ncc34)c2nc1C(C)(C)O [Example 088, 3-Amino-4-(7-fluoro-1H-indazol-4-yl)-6-(1-hydroxy-1-methyl-ethyl)-7-methyl-1H-1,5-naphthyridin-2-one]"
2,17.2,"Cc1cc2[nH]c(=O)c(N)c(-c3ccc(F)c4[nH]ncc34)c2nc1OCC(C)(C)O [Example 078, 3-Amino-4-(7-fluoro-1H-indazol-4-yl)-6-(2-hydroxy-2-methyl-propoxy)-7-methyl-1H-1,5-naphthyridin-2-one]"
3,< 10,"Cc1cc2[nH]c(=O)c(N)c(-c3ccc(F)c4[nH]ncc34)c2nc1OCC1CC1 [Example 47, 3-Amino-6-(cyclopropylmethoxy)-4-(7-fluoro-1H-indazol-4-yl)-7-methyl-1H-1,5-naphthyridin-2-one]"
4,14.6,"Cc1cc2[nH]c(=O)c(N)c(-c3ccc(F)c4[nH]ncc34)c2nc1OC(F)F [Example 062, 3-Amino-6-(difluoromethoxy)-4-(7-fluoro-1H-indazol-4-yl)-7-methyl-1H-1,5-naphthyridin-2-one]"
5,13.1,"COCC#Cc1nc2c(-c3ccc(F)c4[nH]ncc34)c(N)c(=O)[nH]c2cc1C [Example 071, 3-Amino-4-(7-fluoro-1H-indazol-4-yl)-6-(3-methoxyprop-1-ynyl)-7-methyl-1H-1,5-naphthyridin-2-one]"
6,< 10,"Cc1cc2[nH]c(=O)c(N)c(-c3ccc(F)c4[nH]ncc34)c2nc1OC(C)C [Example 064, 3-Amino-4-(7-fluoro-1H-indazol-4-yl)-6-isopropoxy-7-methyl-1H-1,5-naphthyridin-2-one]"
7,11.8,"Cc1cc2[nH]c(=O)c(N)c(-c3ccc(F)c4[nH]ncc34)c2nc1-c1nccs1 [Example 153, 3-Amino-4-(7-fluoro-1H-indazol-4-yl)-7-methyl-6-thiazol-2-yl-1H-1,5-naphthyridin-2-one]"
8,< 10,"Cc1cc2[nH]c(=O)c(N)c(-c3ccc(F)c4[nH]ncc34)c2nc1Cl [Example 3, 3-Amino-6-chloro-4-(7-fluoro-1H-indazol-4-yl)-7-methyl-1H-1,5-naphthyridin-2-one]"
9,< 10,"Cc1cc2[nH]c(=O)c(N)c(-c3ccc(F)c4[nH]ncc34)c2nc1OCC(F)F [Example 059, 3-Amino-6-(2,2-difluoroethoxy)-4-(7-fluoro-1H-indazol-4-yl)-7-methyl-1H-1,5-naphthyridin-2-one]"
10,10.3,"Cc1cc2[nH]c(=O)c(N)c(-c3ccc(F)c4[nH]ncc34)c2nc1Br [Example 21, 3-Amino-6-bromo-4-(7-fluoro-1H-indazol-4-yl)-7-methyl-1H-1,5-naphthyridin-2-one]"
11,< 10,"Cc1cc2[nH]c(=O)c(N)c(-c3ccc(F)c4[nH]ncc34)c2nc1OCC1(C#N)CC1 [Example 58, 1-[[7-Amino-8-(7-fluoro-1H-indazol-4-yl)-3-methyl-6-oxo-5H-1,5-naphthyridin-2-yl]oxymethyl]cyclopropanecarbonitrile]"
12,15.6,"CCc1nc2c(-c3ccc(F)c4[nH]ncc34)c(N)c(=O)[nH]c2cc1C [Example 157, 3-Amino-6-ethyl-4-(7-fluoro-1H-indazol-4-yl)-7-methyl-1H-1,5-naphthyridin-2-one]"
